Reference: patent US12433903B2 (priority 2021, dated 2025)
“And” between values parts separate entries of the source, which are not always exact repeats. Equal values may be shown once.

Assay: Quantification of CBG and CBG glucuronide in rat plasma and brain after oral gavage
Type: in vivo, Sprague-Dawley rat
Conditions: for CBG concentration in rat plasma (Day 21) / CBG concentration in rat brain tissue (Day 21) / CBG concentration in rat plasma (Day 1): individual rats; for CBG concentration in rat brain tissue (Day 21) / CBG concentration in rat brain tissue (Day 21), Average: 24 hrs post Rx
Description: The purpose of this study was to quantify cannabigerol (CBG) in rat plasma and brain.
Seven- to nine-week-old male and female Sprague-Dawley received either a single dose or once daily dosing for 21 clays of vehicle or CBG at three different dosage levels as shown in the Table below.
Approximately 0.2-0.25 mL blood was collected during the first 24 hours after the single dose, and at multiple times points after the terminal dose for the animals receiving daily dosing for 21 days. Liver, kidney, and colon samples were collected and fixed in 10% NBF for 48 hours, then stored in 70% ethanol at room temperature. Brain samples were collected and flash frozen.
Analytical curves were constructed using non-zero standards with CBG concentration ranging from 0.0025 to 2.500 μg/mL and […] in blank rat plasma samples and 1.0 to 2500 ng/mL in blank brain tissues. A blank sample was used to exclude contamination.
Instrument Used: AB SCIEX QTRAP 4500/Shimadzu Prominence LC

For CCCCCc1cc(O)c(C/C=C(\C)CCC=C(C)C)c(O)c1 [CBG, cannabigerol], the “CBG concentration in rat plasma (Day 21)” value (CBG 10 mg/kg oral gavage once daily, 15 min post Rx) was “BLQ (Below Limit of Quantification (2.5 ng/mL))”, the “CBG concentration in rat plasma (Day 21)” value (CBG 10 mg/kg oral gavage once daily, 30 min post Rx) was “BLQ (Below Limit of Quantification (2.5 ng/mL))” and the “CBG concentration in rat plasma (Day 21)” value (CBG 10 mg/kg oral gavage once daily, 1 hr post Rx) was “BLQ (Below Limit of Quantification (2.5 ng/mL)) (4×) and 1.67 ng/mL and 2.75 ng/mL”. For the same compound, the “CBG concentration in rat plasma (Day 21)” value (CBG 10 mg/kg oral gavage once daily, 2 hr post Rx) was “BLQ (Below Limit of Quantification (2.5 ng/mL)) (3×) and 5.6 ng/mL and 9.5 ng/mL and 2.72 ng/mL”, the “CBG concentration in rat plasma (Day 21)” value (CBG 10 mg/kg oral gavage once daily, 4 hr post Rx) was “BLQ (Below Limit of Quantification (2.5 ng/mL)) (4×) and 4.73 ng/mL and 8.49 ng/mL” and the “CBG concentration in rat plasma (Day 21)” value (CBG 10 mg/kg oral gavage once daily, 8 hr post Rx) was “BLQ (Below Limit of Quantification (2.5 ng/mL)) (4×) and 2.55 ng/mL and 4.18 ng/mL”. The “CBG concentration in rat plasma (Day 21)” value (CBG 10 mg/kg oral gavage once daily, 24 hr post Rx) was “BLQ (Below Limit of Quantification (2.5 ng/mL))”, the “CBG concentration in rat brain tissue (Day 21)” value (CBG 10 mg/kg oral gavage once daily) was “BLQ (Below Limit of Quantification (1.0 ng/g))” and the “CBG concentration in rat plasma (Day 1)” value (CBG 10 mg/kg oral gavage once, 15 min post Rx) was “BLQ (Below Limit of Quantification (2.5 ng/mL))”. The “CBG concentration in rat plasma (Day 1)” value (CBG 10 mg/kg oral gavage once, 30 min post Rx) was “BLQ (Below Limit of Quantification (2.5 ng/mL))”, the “CBG concentration in rat plasma (Day 1)” value (CBG 10 mg/kg oral gavage once, 1 hr post Rx) was 5.3 ng/mL and BLQ (Below Limit of Quantification (2.5 ng/mL)) (2×) and 18.6 ng/mL and 7.3 ng/mL and the “CBG concentration in rat plasma (Day 1)” value (CBG 10 mg/kg oral gavage once, 2 hr post Rx) was 10.7 ng/mL and BLQ (Below Limit of Quantification (2.5 ng/mL)) and 14.6 ng/mL and 11.5 ng/mL and 12.0 ng/mL. The “CBG concentration in rat plasma (Day 1)” value (CBG 10 mg/kg oral gavage once, 4 hr post Rx) was “BLQ (Below Limit of Quantification (2.5 ng/mL))”, the “CBG concentration in rat plasma (Day 1)” value (CBG 10 mg/kg oral gavage once, 8 hr post Rx) was “BLQ (Below Limit of Quantification (2.5 ng/mL))” and the “CBG concentration in rat plasma (Day 1)” value (CBG 10 mg/kg oral gavage once, 24 hr post Rx) was “BLQ (Below Limit of Quantification (2.5 ng/mL))”. The “CBG concentration in rat plasma (Day 21)” value (CBG 30 mg/kg oral gavage once daily, 15 min post Rx) was “BLQ (Below Limit of Quantification (2.5 ng/mL)) (3×) and 14.7 ng/mL and 4.51 ng/mL and 9.12 ng/mL”, the “CBG concentration in rat plasma (Day 21)” value (CBG 30 mg/kg oral gavage once daily, 30 min post Rx) was “BLQ (Below Limit of Quantification (2.5 ng/mL))” and the “CBG concentration in rat plasma (Day 21)” value (CBG 30 mg/kg oral gavage once daily, 1 hr post Rx) was “BLQ (Below Limit of Quantification (2.5 ng/mL))”. The “CBG concentration in rat plasma (Day 21)” value (CBG 30 mg/kg oral gavage once daily, 2 hr post Rx) was “BLQ (Below Limit of Quantification (2.5 ng/mL))”, the “CBG concentration in rat plasma (Day 21)” value (CBG 30 mg/kg oral gavage once daily, 4 hr post Rx) was “BLQ (Below Limit of Quantification (2.5 ng/mL))” and the “CBG concentration in rat plasma (Day 21)” value (CBG 30 mg/kg oral gavage once daily, 8 hr post Rx) was “BLQ (Below Limit of Quantification (2.5 ng/mL))”. For the same compound, the “CBG concentration in rat plasma (Day 21)” value (CBG 30 mg/kg oral gavage once daily, 24 hr post Rx) was “BLQ (Below Limit of Quantification (2.5 ng/mL))”, the “CBG concentration in rat brain tissue (Day 21)” value (CBG 30 mg/kg oral gavage once daily) was “BLQ (Below Limit of Quantification (1.0 ng/g)) (5×) and 43.8 ng/g” and the “CBG concentration in rat plasma (Day 1)” value (CBG 30 mg/kg oral gavage once, 15 min post Rx) was 3.8 ng/mL and 7.6 ng/mL and BLQ (Below Limit of Quantification (2.5 ng/mL)) (4×). The “CBG concentration in rat plasma (Day 1)” value (CBG 30 mg/kg oral gavage once, 30 min post Rx) was 15.2 ng/mL and BLQ (Below Limit of Quantification (2.5 ng/mL)) (5×), the “CBG concentration in rat plasma (Day 1)” value (CBG 30 mg/kg oral gavage once, 1 hr post Rx) was 22.9 ng/mL and 32.3 ng/mL and 32.5 ng/mL and 1.08 ng/mL and 31.2 ng/mL and 35.9 ng/mL and the “CBG concentration in rat plasma (Day 1)” value (CBG 30 mg/kg oral gavage once, 2 hr post Rx) was “BLQ (Below Limit of Quantification (2.5 ng/mL)) (2×) and 11.0 ng/mL and 26.6 ng/mL and 78.6 ng/mL and 36.0 ng/mL”. The “CBG concentration in rat plasma (Day 1)” value (CBG 30 mg/kg oral gavage once, 4 hr post Rx) was 24.5 ng/mL and BLQ (Below Limit of Quantification (2.5 ng/mL)) (2×) and 54.3 ng/mL and 62.1 ng/mL and 48.3 ng/mL, the “CBG concentration in rat plasma (Day 1)” value (CBG 30 mg/kg oral gavage once, 8 hr post Rx) was “BLQ (Below Limit of Quantification (2.5 ng/mL))” and the “CBG concentration in rat plasma (Day 1)” value (CBG 30 mg/kg oral gavage once, 24 hr post Rx) was “BLQ (Below Limit of Quantification (2.5 ng/mL)) (5×) and 2.75 ng/mL”. For the same compound, the “CBG concentration in rat plasma (Day 21)” value (CBG 100 mg/kg oral gavage once daily, 15 min post Rx) was “BLQ (Below Limit of Quantification (2.5 ng/mL)) (4×) and 41.6 ng/mL”, the “CBG concentration in rat plasma (Day 21)” value (CBG 100 mg/kg oral gavage once daily, 30 min post Rx) was “BLQ (Below Limit of Quantification (2.5 ng/mL)) (3×) and 178.5 ng/mL and 122.5 ng/mL” and the “CBG concentration in rat plasma (Day 21)” value (CBG 100 mg/kg oral gavage once daily, 1 hr post Rx) was “BLQ (Below Limit of Quantification (2.5 ng/mL)) (3×) and 225.5 ng/mL and 206.0 ng/mL”. The “CBG concentration in rat plasma (Day 21)” value (CBG 100 mg/kg oral gavage once daily, 2 hr post Rx) was 307.0 ng/mL and 201.0 ng/mL and 278.0 ng/mL and BLQ (Below Limit of Quantification (2.5 ng/mL)) and 275.5 ng/mL, the “CBG concentration in rat plasma (Day 21)” value (CBG 100 mg/kg oral gavage once daily, 4 hr post Rx) was “BLQ (Below Limit of Quantification (2.5 ng/mL)) and 171.0 ng/mL and 129.5 ng/mL and 185.0 ng/mL and 905.0 ng/mL and 417.0 ng/mL” and the “CBG concentration in rat plasma (Day 21)” value (CBG 100 mg/kg oral gavage once daily, 8 hr post Rx) was “BLQ (Below Limit of Quantification (2.5 ng/mL)) (2×) and 215.0 ng/mL and 905.0 ng/mL and 3095.0 ng/mL and 373.0 ng/mL”. The “CBG concentration in rat plasma (Day 21)” value (CBG 100 mg/kg oral gavage once daily, 24 hr post Rx) was “BLQ (Below Limit of Quantification (2.5 ng/mL))”, the “CBG concentration in rat brain tissue (Day 21), Average” value (CBG 100 mg/kg oral gavage once daily, female rats) was 299.27 ng/g and the “CBG concentration in rat brain tissue (Day 21)” value (CBG 100 mg/kg oral gavage once daily) was 53.0 ng/g and 108.0 ng/g and 1460.0 ng/g and 271.0 ng/g and 580.0 ng/g and 46.8 ng/g. The “CBG concentration in rat brain tissue (Day 21), Average” value (CBG 100 mg/kg oral gavage once daily, male rats) was 540.33 ng/g, the “CBG concentration in rat plasma (Day 1)” value (CBG 100 mg/kg oral gavage once, 15 min post Rx) was “BLQ (Below Limit of Quantification (2.5 ng/mL))” and the “CBG concentration in rat plasma (Day 1)” value (CBG 100 mg/kg oral gavage once, 30 min post Rx) was “BLQ (Below Limit of Quantification (2.5 ng/mL))”. For the same compound, the “CBG concentration in rat plasma (Day 1)” value (CBG 100 mg/kg oral gavage once, 1 hr post Rx) was “BLQ (Below Limit of Quantification (2.5 ng/mL))”, the “CBG concentration in rat plasma (Day 1)” value (CBG 100 mg/kg oral gavage once, 2 hr post Rx) was “BLQ (Below Limit of Quantification (2.5 ng/mL))” and the “CBG concentration in rat plasma (Day 1)” value (CBG 100 mg/kg oral gavage once, 4 hr post Rx) was “BLQ (Below Limit of Quantification (2.5 ng/mL)) (4×) and 119.0 ng/mL and 143.0 ng/mL”. The “CBG concentration in rat plasma (Day 1)” value (CBG 100 mg/kg oral gavage once, 8 hr post Rx) was “BLQ (Below Limit of Quantification (2.5 ng/mL))”, the “CBG concentration in rat plasma (Day 1)” value (CBG 100 mg/kg oral gavage once, 24 hr post Rx) was “BLQ (Below Limit of Quantification (2.5 ng/mL))” and the “concentration of CBG in plasma (in words)” value (oral gavage 10-100 mg/kg, Day 1 and Day 21) was “low or below the level of quantitation (BLQ)”. For the same compound, the “CBG in brain (in words)” value (oral gavage, Day 21) was “not detected” and the “first pass metabolism to the glucuronide (in words)” value (upon oral administration) was “very high”.
